The results in this text go back to US20210284647A1, “N-(3-(IMIDAZO[1,2-B]PYRIDAZIN-3-YLETHYNYL)-4-METHYLPHENYL)-5-PHENYL-4,5-DIHYDRO-1H-PYRAZOLE-1-CARBOXAMIDE DERIVATIVE, AND PHARMACEUTICAL COMPOSITION CONTAINING SAME AS ACTIVE INGREDIENT FOR TREATING KINASE-RELATED DISEASES” (VORONOIBIO INC., priority 2018, published 2021).

pEC50, pIC50: −log10 of the molar value.

The target of one assay is T1, human GST-RIPK1 (Homo sapiens, UniProt Q13546).
T1 construct: GST; purchased signalchem
T1 sequence (Q13546 1-375 limits assumed): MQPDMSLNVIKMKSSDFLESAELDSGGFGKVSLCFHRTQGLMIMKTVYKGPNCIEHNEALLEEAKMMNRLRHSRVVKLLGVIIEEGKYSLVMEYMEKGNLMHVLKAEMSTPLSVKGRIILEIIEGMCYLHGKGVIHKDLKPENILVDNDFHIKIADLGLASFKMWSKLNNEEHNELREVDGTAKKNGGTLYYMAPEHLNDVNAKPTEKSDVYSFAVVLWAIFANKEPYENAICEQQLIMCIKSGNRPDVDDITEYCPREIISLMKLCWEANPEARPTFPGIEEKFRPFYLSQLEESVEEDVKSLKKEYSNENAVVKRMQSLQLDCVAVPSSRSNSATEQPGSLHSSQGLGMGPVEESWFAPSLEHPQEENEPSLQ
The assay can be described thus: RIPK1 inhibitory activity (ADP-Glo kinase assay). In kind it is biochemical. Conditions: human GST-RIPK1 10 ng, ATP 50 uM, 25° C. for 4 hours, read-out: Enzyme IC50. In outline: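 Purified human GST-RIPK1 (10 ng) was reacted with 50 uM ATP and substrate in Tris-HCl pH 7.4, MgCl2, BSA, DTT buffer for 4 h at 25 °C. ADP formed was read by ADP-Glo luminescence. IC50 is relative to solvent control, from three data sets.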
A general note: In ADP-Glo the light output rises with the ADP produced.

Assay [1] has as its system human Jurkat T cells deficient in FADD. Kind of assay: Cell protection effect under apoptosis-inducing condition (TNF-α). In kind it is cell-based. The conditions noted are these: 40 ng of TNF-α, 50 hours, CellTiter-Glo, read-out: I2.I Cell EC50. In outline: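 FADD-deficient Jurkat cells (10,000/well) were cultured for 24 h, then exposed to TNF-α (40 ng) plus compound in a 3-fold series from 1 µM top (0.05% DMSO) for 50 h. Viability was read by CellTiter-Glo luminescence. EC50 is the concentration giving 50% inhibition of apoptosis relative to solvent control.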

One may read the pIC50 as the negative decadic logarithm of the IC50, by convention in mol/L. As usually defined, the pEC50 is the EC50 on a negative log10 scale, so that one unit is a factor of ten. Turning to `CNC(=O)Nc1cccn2c(C#Cc3cccc(NC(=O)N4N=CCC4c4ccccc4)c3)cnc12` (stereo not shown) [Example 61, N-(3-((8-(3-methylureido)imidazo[1,2-a]pyridin-3-yl)ethynyl)phenyl)-5-phenyl-4,5-dihydro-1H-pyrazole-1-carboxamide 2,2,2-trifluoroacetate], at human GST-RIPK1, the negative logarithm of the IC50 (pIC50) is 7.01. For the same compound, in assay [1], the pEC50 was 9.40.
Regarding `O=C(Nc1cccn2c(C#Cc3cccc(NC(=O)N4N=CCC4c4ccccc4)c3)cnc12)C1CC1` (stereo not shown) [Example 62, N-(3-((8-(cyclopropanecarboxamido)imidazo[1,2-a]pyridin-3-yl)ethynyl)phenyl)-5-phenyl-4,5-dihydro-1H-pyrazole-1-carboxamide 2,2,2-trifluoroacetate], on human GST-RIPK1, the pIC50 was 6.75. The pEC50 in assay [1] was 8.77.
With `O=C(Nc1cccn2c(C#Cc3cccc(NC(=O)N4N=CCC4c4ccccc4)c3)cnc12)C1CCC1` (stereo not shown) [Example 63, N-(3-((8-(cyclobutanecarboxamido)imidazo[1,2-a]pyridin-3-yl)ethynyl)phenyl)-5-phenyl-4,5-dihydro-1H-pyrazole-1-carboxamide 2,2,2-trifluoroacetate], the pIC50 at human GST-RIPK1 is 7.40. In addition, the negative logarithm of the EC50 (pEC50) in assay [1] is 9.05.
`COC(=O)Nc1cccn2c(C#Cc3cccc(NC(=O)N4N=CCC4c4ccccc4)c3)cnc12` (stereo not shown) [Example 64, methyl (3-((3-(5-phenyl-4,5-dihydro-1H-pyrazole-1-carboxamido)phenyl)ethynyl)imidazo[1,2-a]pyridin-8-yl)carbamate]: the pIC50 on human GST-RIPK1 is 6.92. Moreover, in assay [1], the negative-log EC50 (pEC50) is 8.96.
As for `CS(=O)(=O)c1ccc(Nc2cccn3c(C#Cc4cccc(NC(=O)N5N=CCC5c5ccccc5)c4)cnc23)cc1` (stereo not shown) [Example 65, N-(3-((8-((4-(methylsulfonyl)phenyl)amino)imidazo[1,2-a]pyridin-3-yl)ethynyl)phenyl)-5-phenyl-4,5-dihydro-1H-pyrazole-1-carboxamide 2,2,2-trifluoroacetate], the negative-log IC50 (pIC50) at human GST-RIPK1 was 7.29. The pEC50 in assay [1] was 9.70.
On to `Cc1cc(Nc2cccn3c(C#Cc4cccc(NC(=O)N5N=CCC5c5ccccc5)c4)cnc23)n[nH]1` (stereo not shown) [Example 66, N-(3-((8-((5-methyl-1H-pyrazol-3-yl)amino)imidazo[1,2-a]pyridin-3-yl)ethynyl)phenyl)-5-phenyl-4,5-dihydro-1H-pyrazole-1-carboxamide 2,2,2-trifluoroacetate], for which the negative logarithm of the IC50 (pIC50) at human GST-RIPK1 was 7.51. Also, in assay [1], the negative logarithm of the EC50 (pEC50) was 9.66.
`Cn1cc(Nc2cccn3c(C#Cc4cccc(NC(=O)N5N=CCC5c5ccccc5)c4)cnc23)cn1` (stereo not shown) [Example 67, N-(3-((8-((1-methyl-1H-pyrazol-4-yl)amino)imidazo[1,2-a]pyridin-3-yl)ethynyl)phenyl)-5-phenyl-4,5-dihydro-1H-pyrazole-1-carboxamide 2,2,2-trifluoroacetate]: at human GST-RIPK1, the pIC50 is 7.72. In addition, the pEC50 in assay [1] is 10.10.
As to `Cn1ccc(Nc2cccn3c(C#Cc4cccc(NC(=O)N5N=CCC5c5ccccc5)c4)cnc23)n1` (stereo not shown) [Example 68, N-(3-((8-((1-methyl-1H-pyrazol-3-yl)amino)imidazo[1,2-a]pyridin-3-yl)ethynyl)phenyl)-5-phenyl-4,5-dihydro-1H-pyrazole-1-carboxamide 2,2,2-trifluoroacetate], the pIC50 on human GST-RIPK1 is 7.41. For the same compound, in assay [1], the pEC50 was 9.92.
